Laboratory results: PMC3645732, “A Differential Redox Regulation of the Pathways Metabolizing Glyceraldehyde-3-Phosphate Tunes the Production of Reducing Power in the Cytosol of Plant Cells” (International Journal of Molecular Sciences, 2013)

Columns and labels:
[1] = biological target: T1, np-Ga3PDHase (non-phosphorylating NADP+-dependent glyceraldehyde-3-phosphate dehydrogenase, EC 1.2.1.9) (Triticum aestivum, UniProt Q8LK61); assay: Kd from protection against H2O2 inactivation of purified enzyme (Mildvan and Leigh plot); type: biochemical
T1 construct: gene GAPN; recombinant wheat enzyme (NCBI DQ268762), pRSETB/TagapN, E. coli
T1 sequence (Q8LK61 1-496): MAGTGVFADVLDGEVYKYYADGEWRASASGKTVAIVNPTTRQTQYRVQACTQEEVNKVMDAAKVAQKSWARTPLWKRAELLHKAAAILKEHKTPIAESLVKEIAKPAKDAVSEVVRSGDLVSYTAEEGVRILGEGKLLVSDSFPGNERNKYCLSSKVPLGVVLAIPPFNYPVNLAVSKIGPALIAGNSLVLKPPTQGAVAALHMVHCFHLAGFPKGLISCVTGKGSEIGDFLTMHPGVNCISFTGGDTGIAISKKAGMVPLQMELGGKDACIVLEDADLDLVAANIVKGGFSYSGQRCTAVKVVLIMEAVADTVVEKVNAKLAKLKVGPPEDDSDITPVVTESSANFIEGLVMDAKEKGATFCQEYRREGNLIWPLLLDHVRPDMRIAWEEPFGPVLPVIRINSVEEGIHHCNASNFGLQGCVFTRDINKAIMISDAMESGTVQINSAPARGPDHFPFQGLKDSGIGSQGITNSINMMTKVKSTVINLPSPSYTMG

[2] = biological target: T2, Ga3PDHase (phosphorylating NAD+-dependent glyceraldehyde-3-phosphate dehydrogenase, EC 1.2.1.12) (Triticum aestivum, UniProt A5YVV3); assay: Kd from protection against H2O2 inactivation in presence of NAD+ (Mildvan and Leigh plot); S0.[…] by enzyme kinetics; type: biochemical
T2 construct: gene GAPC; recombinant wheat gapC (NCBI EF592180), homotetramer, E. coli
T2 sequence (A5YVV3 1-337): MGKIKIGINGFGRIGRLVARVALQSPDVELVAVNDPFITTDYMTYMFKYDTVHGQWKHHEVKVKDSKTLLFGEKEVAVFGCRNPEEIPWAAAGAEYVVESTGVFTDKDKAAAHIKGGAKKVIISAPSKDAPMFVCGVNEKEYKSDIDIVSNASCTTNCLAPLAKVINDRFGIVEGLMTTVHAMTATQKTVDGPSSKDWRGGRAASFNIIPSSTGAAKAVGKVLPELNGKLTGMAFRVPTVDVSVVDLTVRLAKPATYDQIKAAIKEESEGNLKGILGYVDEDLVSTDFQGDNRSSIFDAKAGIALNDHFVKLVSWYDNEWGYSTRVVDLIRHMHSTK

Kd [1] | Kd [2] | Compound
2.5 µM |  | NC(=O)c1ccc[n+]([C@@H]2O[C@H](COP(=O)([O-])OP(=O)(O)OC[C@H]3O[C@@H](n4cnc5c(N)ncnc54)[C@H](OP(=O)(O)O)[C@@H]3O)[C@@H](O)[C@H]2O)c1 [NADP^+]
 | 115 µM | O=C[C@H](O)COP(=O)(O)O [glyceraldehyde-3-phosphate]
